Experimental data from PubChem BioAssay (NCI).
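Assay format: 96-well plates, 48-hour exposure. GI50 = concentration required for 50% inhibition of growth. TGI: concentration producing complete growth inhibition.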

Tests used:
Test in all cases: NCI tumour cell line growth inhibition, 48 h
[1] = test system: SNB-75 CNS
[2] = test system: A549 NSCLC
[3] = test system: SW-620 colon
[4] = test system: K-562 leukemia
[5] = test system: CAKI-1 renal
[6] = test system: SR leukemia
[7] = test system: SF-268 CNS
[8] = test system: SK-MEL-5 melanoma
[9] = test system: HL-60(TB) leukemia
[10] = test system: NCI-H522 lung
[11] = test system: MOLT-4 leukemia
[12] = test system: A498 renal
[13] = test system: HT29 colon
[14] = test system: UACC-257 melanoma
[15] = test system: 786-0 renal
[16] = test system: RXF 393 renal
[17] = test system: RPMI-8226 leukemia
[18] = test system: SK-MEL-2 melanoma
[19] = test system: NCI-H23 lung
[20] = test system: IGROV1 ovarian
[21] = test system: HS 578T breast
[22] = test system: MDA-MB-435
[23] = test system: HCT-15 colon
[24] = test system: UACC-62 melanoma
[25] = test system: SN12C renal
[26] = test system: DU-145 prostate
[27] = test system: NCI-H460 lung
[28] = test system: SNB-19 CNS
[29] = test system: NCI/ADR-RES ovarian
[30] = test system: OVCAR-4 ovarian
[31] = test system: LOX IMVI melanoma
[32] = test system: MCF7 breast
[33] = test system: OVCAR-8 ovarian
[34] = test system: SF-539 CNS
[35] = test system: OVCAR-5 ovarian
[36] = test system: KM12 colon
[37] = test system: SK-OV-3 ovarian
[38] = test system: HOP-92 NSCLC
[39] = test system: OVCAR-3 ovarian
[40] = test system: TK-10 renal
[41] = test system: ACHN renal
[42] = test system: COLO 205 colon
[43] = test system: SF-295 CNS
[44] = test system: HOP-62 NSCLC
[45] = test system: T-47D breast
[46] = test system: BT-549 breast
[47] = test system: U251 CNS
[48] = test system: MDA-MB-231 breast
[49] = test system: M14 melanoma
[50] = test system: MALME-3M melanoma
[51] = test system: NCI-H226 lung
[52] = test system: HCC-2998 colon
[53] = test system: HCT-116 colon
[54] = test system: PC-3 prostate
[55] = test system: UO-31 renal
[56] = test system: EKVX NSCLC
[57] = test system: CCRF-CEM leukemia
[58] = test system: SK-MEL-28 melanoma
[59] = test system: MDA-N

NNc1c2ccccc2nc2ccccc12
GI50 [1]: 2.67 µM | TGI [1]: 17.8 µM | GI50 [2]: 5.29 µM | TGI [2]: > 100 µM | GI50 [3]: 4.06 µM | TGI [3]: 27.4 µM | GI50 [4]: 3.32 µM | TGI [4]: 64.7 µM | GI50 [5]: 3.29 µM | TGI [5]: 19.4 µM | GI50 [6]: 3.4 µM | TGI [6]: 19.8 µM | GI50 [7]: 5.94 µM | TGI [7]: > 100 µM | GI50 [8]: 2.14 µM | TGI [8]: 13.3 µM | GI50 [9]: 1.78 µM | TGI [9]: 16.9 µM | GI50 [10]: 2.59 µM | TGI [10]: 14.4 µM | GI50 [11]: 0.897 µM | TGI [11]: > 100 µM | GI50 [12]: 1.43 µM | TGI [12]: 17.5 µM | GI50 [13]: 3.28 µM | TGI [13]: 16.1 µM | GI50 [14]: 4.06 µM | TGI [14]: 36.2 µM | GI50 [15]: 6.2 µM | TGI [15]: 29.4 µM | GI50 [16]: 7.4 µM | TGI [16]: 24.4 µM | GI50 [17]: 0.558 µM | TGI [17]: 17.4 µM | GI50 [18]: 12.5 µM | TGI [18]: 29.2 µM | GI50 [19]: 1.37 µM | TGI [19]: 33 µM | GI50 [20]: 3.07 µM | TGI [20]: 20.8 µM | GI50 [21]: 16 µM | TGI [21]: > 100 µM | GI50 [22]: 5.08 µM | TGI [22]: 23.4 µM | GI50 [23]: 4.2 µM | TGI [23]: 34.2 µM | GI50 [24]: 3.44 µM | TGI [24]: 19.3 µM | GI50 [25]: 6.44 µM | TGI [25]: 56.7 µM | GI50 [26]: 10.9 µM | TGI [26]: > 100 µM | GI50 [27]: 2.48 µM | TGI [27]: 15.5 µM | GI50 [28]: 5.89 µM | TGI [28]: > 100 µM | GI50 [29]: 3.76 µM | TGI [29]: 27.4 µM | GI50 [30]: 2.62 µM | TGI [30]: 19.4 µM | GI50 [31]: 3.62 µM | TGI [31]: 22.4 µM | GI50 [32]: 3.77 µM | TGI [32]: 33.7 µM | GI50 [33]: 5.09 µM | TGI [33]: 30.7 µM | GI50 [34]: 3.73 µM | TGI [34]: 22.9 µM | GI50 [35]: 15.8 µM | TGI [35]: 54.1 µM | GI50 [36]: 4.55 µM | TGI [36]: 27.8 µM | GI50 [37]: 6.91 µM | TGI [37]: > 100 µM | GI50 [38]: 5.19 µM | TGI [38]: 43.6 µM | GI50 [39]: 5.85 µM | TGI [39]: 27.3 µM | GI50 [40]: 8.32 µM | TGI [40]: 26.7 µM | GI50 [41]: 5.31 µM | TGI [41]: 33.9 µM | GI50 [42]: 4.63 µM | TGI [42]: 18.3 µM | GI50 [43]: 1.88 µM | TGI [43]: 14.9 µM | GI50 [44]: 5.56 µM | TGI [44]: 79 µM | GI50 [45]: 6.08 µM | TGI [45]: 73.4 µM | GI50 [46]: 4.15 µM | TGI [46]: 36.8 µM | GI50 [47]: 4.89 µM | TGI [47]: 40.6 µM | GI50 [48]: 10.7 µM | TGI [48]: 48.6 µM | GI50 [49]: 6.11 µM | TGI [49]: 21.8 µM | GI50 [50]: 5.03 µM | TGI [50]: 36.1 µM | GI50 [51]: 4.26 µM | TGI [51]: 43 µM | GI50 [52]: 7.59 µM | TGI [52]: 63.2 µM | GI50 [53]: 3.99 µM | TGI [53]: 17.6 µM | GI50 [54]: 2.34 µM | TGI [54]: 37.3 µM | GI50 [55]: 2.76 µM | TGI [55]: 19.5 µM | GI50 [56]: 1.89 µM | TGI [56]: 26.8 µM | GI50 [57]: 0.688 µM | TGI [57]: > 100 µM | GI50 [58]: 10.7 µM | TGI [58]: 60.7 µM

Nc1n[nH]c(N)c1N=Nc1ccc(O)cc1
GI50 [1]: 18.5 µM | TGI [1]: 41.6 µM | GI50 [2]: 22.5 µM | TGI [2]: > 100 µM | GI50 [3]: 26.3 µM | TGI [3]: 84.8 µM | GI50 [4]: 9.17 µM | TGI [4]: > 100 µM | GI50 [5]: 14.7 µM | TGI [5]: 63.9 µM | GI50 [6]: 10.3 µM | TGI [6]: 59.8 µM | GI50 [7]: 20.5 µM | TGI [7]: 82.6 µM | GI50 [8]: 13.9 µM | TGI [8]: 30.9 µM | GI50 [9]: 6.44 µM | TGI [9]: 35.4 µM | GI50 [10]: 24.3 µM | TGI [10]: > 100 µM | GI50 [11]: 13.5 µM | TGI [11]: 91 µM | GI50 [12]: 18.2 µM | TGI [12]: 43.7 µM | GI50 [13]: 29.7 µM | TGI [13]: > 100 µM | GI50 [14]: 24.4 µM | TGI [14]: 85.1 µM | GI50 [15]: 26.3 µM | TGI [15]: > 100 µM | GI50 [16]: 18.4 µM | TGI [16]: 43.9 µM | GI50 [17]: 14.4 µM | TGI [17]: 54.3 µM | GI50 [18]: 14.4 µM | TGI [18]: 57 µM | GI50 [19]: 19.1 µM | TGI [19]: 62.3 µM | GI50 [20]: 20.6 µM | TGI [20]: 81.4 µM | GI50 [21]: 21.8 µM | TGI [21]: 77.8 µM | GI50 [22]: 17.1 µM | TGI [22]: 59.4 µM | GI50 [23]: 24.2 µM | TGI [23]: 90.6 µM | GI50 [24]: 11 µM | TGI [24]: 36.4 µM | GI50 [25]: 23.3 µM | TGI [25]: > 100 µM | GI50 [26]: 17 µM | TGI [26]: 62.5 µM | GI50 [27]: 25.1 µM | TGI [27]: 97.2 µM | GI50 [28]: 29.8 µM | TGI [28]: > 100 µM | GI50 [29]: 22.6 µM | TGI [29]: 92.4 µM | GI50 [30]: 19 µM | TGI [30]: 74.7 µM | GI50 [31]: 4.09 µM | TGI [31]: 53.6 µM | GI50 [32]: 23.5 µM | TGI [32]: 90.8 µM | GI50 [33]: 18 µM | TGI [33]: > 100 µM | GI50 [34]: 13.1 µM | TGI [34]: 36.4 µM | GI50 [35]: 23.5 µM | TGI [35]: > 100 µM | GI50 [36]: 17.2 µM | TGI [36]: 74.1 µM | GI50 [37]: 49.2 µM | TGI [37]: > 100 µM | GI50 [38]: 18.2 µM | TGI [38]: 67.8 µM | GI50 [39]: 22.7 µM | TGI [39]: 69.7 µM | GI50 [40]: 25.7 µM | TGI [40]: 70.4 µM | GI50 [41]: 15.6 µM | TGI [41]: 61.1 µM | GI50 [42]: 18.9 µM | TGI [42]: 54.2 µM | GI50 [43]: 23.3 µM | TGI [43]: 82.5 µM | GI50 [44]: 31.8 µM | TGI [44]: > 100 µM | GI50 [45]: 14.2 µM | TGI [45]: 87.5 µM | GI50 [46]: 14 µM | TGI [46]: 63.5 µM | GI50 [47]: 21.2 µM | TGI [47]: 86.2 µM | GI50 [48]: 16.8 µM | TGI [48]: 82.8 µM | GI50 [49]: 15.9 µM | TGI [49]: > 100 µM | GI50 [50]: 24.6 µM | TGI [50]: 60.3 µM | GI50 [51]: 17.7 µM | TGI [51]: 67.5 µM | GI50 [52]: 29.4 µM | TGI [52]: > 100 µM | GI50 [53]: 18.9 µM | TGI [53]: 89.9 µM | GI50 [54]: 20.3 µM | TGI [54]: > 100 µM | GI50 [55]: 13.7 µM | TGI [55]: 66.3 µM | GI50 [56]: 22 µM | TGI [56]: 67.8 µM | GI50 [57]: 20 µM | TGI [57]: 63 µM | GI50 [58]: 22.1 µM | TGI [58]: 63.8 µM

CC[C@H]1C=CCC[C@@]2(C[C@@H]3CC[C@@H]4[C@H](C(=O)OCCCCCCCCCCCCCCCC(=O)N(CCCN)CCCCN)[C@]5(CCC[C@@H](C)O5)NC(=[N+]34)N2)O1
TGI [2]: 1.42 µM | TGI [5]: 1.59 µM | TGI [13]: 1.32 µM | TGI [19]: 1.07 µM | TGI [20]: 2.28 µM | TGI [23]: 1.4 µM | TGI [28]: 1.99 µM | TGI [29]: 2.7 µM | TGI [36]: 1.2 µM | TGI [38]: 0.197 µM | TGI [44]: 0.106 µM | TGI [47]: 1.54 µM | TGI [49]: 0.0187 µM | TGI [50]: 0.119 µM | TGI [53]: 1.41 µM | TGI [54]: 1.46 µM | TGI [55]: 0.334 µM | TGI [59]: 1.83 µM
